Measurements published in paper PMC8124774, “Tuning Anti-Biofilm Activity of Manganese(II) Complexes: Linking Biological Effectiveness of Heteroaromatic Complexes of Alcohol, Aldehyde, Ketone, and Carboxylic Acid with Structural Effects and Redox Activity” (International Journal of Molecular Sciences, 2021).
Values joined by “and” are separate entries in the source; they are usually repeats but may differ in a detail not shown here. Equal values may be shown once.

What was measured:
[1] = tested on: P. aeruginosa PAO1 biofilm; assay: LIVE/DEAD fluorescence assay of biofilm (epifluorescence microscopy); assay type: cell-based, Pseudomonas aeruginosa; conditions: 0.5 mM, 24 h
Experimental: The effect of the manganese complexes (the concentration of 0.5 mM) on the cell viability of P. aeruginosa in the biofilm layers using the LIVE/DEAD fluorescence assay was also assessed. The mixture of two fluorescent dyes, the dye SYTO-9, and the propidium iodide (included in the FilmTracer™ LIVE/DEAD Biofilm Viability Kit) was used to distinguish live and dead cells. The SYTO-9 can penetrate most membranes freely and is used for assessing total cell counts. In contrast, propidium iodide penetrates cells with compromised membranes, differentiating the damaged bacterial cells from a metabolic active, live cells. As a result, microorganisms with intact cell membranes stain fluorescent green, whereas microorganisms with damaged membranes stain fluorescent red. […] The presence of compounds in the culture caused the aggregation of cells into microcolonies, which was not observed in the control. This observation proves that bacteria were trying to protect themselves against the effect of the complexes tested.
Fluorescence microscopy was used to image live/dead cells in the P. aeruginosa PAO1 biofilm. First, the overnight culture of bacteria was diluted with fresh TSB medium (1:100). […]

[2] = tested on: P. aeruginosa PAO1 biofilm; assay: biofilm formation, crystal violet staining assay; assay type: cell-based, Pseudomonas aeruginosa; conditions: P. aeruginosa PAO1, vs untreated control
Experimental: (§1) All bacteria species were cultivated in trypticase soy broth (TSB) medium (Biocorp, Warsaw, Poland) for 18 h at 37 °C with shaking (160 rpm). Overnight cultures of bacteria were diluted 1:100 into fresh TSB medium and then placed in each of the 96 wells of a microtiter transparent plate (Greiner, Monroe, NC, USA). The manganese(II) complexes—[Mn-pyOH-SO4]n, Mn-imCHO-NO3, Mn-imCHO-Cl, Mn-dipyCO-NO3—and the ligands—pyOH, pyCOOH—were prepared by dissolving compounds in distilled water. […] The starting stock solution was of 2-mM concentration.
To evaluate the effect of the compounds on P. aeruginosa biofilm formation, a crystal violet staining assay was used, following previously described protocols. The concentration of the investigated compounds was in the range 0.0625–1 mM. The amount of biofilm formed was determined by measuring the absorbance at λ = 595 nm with the Infinite M200 PRO microplate reader (Tecan, Männedorf, Switzerland). The measurement results, expressed in absorbance units, were converted into percentages to allow the comparison of numerical data obtained in different experiments.

[3] = tested on: Escherichia coli ATCC 8739; assay: broth microdilution MIC, E. coli; assay type: cell-based; conditions: planktonic cells
Experimental: (§2) The antimicrobial activities of the heteroaromatic ligands, Mn(II) complexes, and commercially available drug streptomycin were tested against standard bacterial strains: Staphylococcus aureus ATCC 6538P, Escherichia coli ATCC 8739, Pseudomonas aeruginosa PAO1 (biofilm model strain), and Pseudomonas aeruginosa LES B58 (clinical isolate). The P. aeruginosa PAO1 and LES B58 isolates were derived from the International Pseudomonas aeruginosa Reference Panel (http://bccm.belspo.be/about-us/bccm-lmg, accessed on 30 March 2021).
as §1
(§3) The quantitative assay of the antibacterial activity was performed by the broth microdilution method, in 96-well microtiter plates, in order to establish the minimum inhibitory concentration (MIC). To this purpose, serial two-fold dilutions of the compounds ranging between 1 and 0.0625 mM were made. The details of the experiment were presented in our previous paper.

[4] = tested on: Pseudomonas aeruginosa LES B58; assay: broth microdilution MIC, P. aeruginosa LES B58; assay type: cell-based; conditions: P. aeruginosa LES B58, planktonic cells
Experimental: as §2, §1, §3

[5] = tested on: Pseudomonas aeruginosa PAO1; assay: broth microdilution MIC, P. aeruginosa PAO1; assay type: cell-based; conditions: P. aeruginosa PAO1, planktonic cells
Experimental: as §2, §1, §3

[6] = tested on: primary human fibroblasts (VH10); assay: cytotoxicity, MTT test; assay type: cell-based; conditions: VH10 cells, 24 h, 15–1000 µM
Experimental: Primary human fibroblasts (VH10) were cultured at 37 °C in a humidified 5% CO2 atmosphere in plastic dishes in Dulbecco’s modified eagle medium (DMEM) supplemented with 10% heat inactivated fetal calf serum, 2 mM of l-glutamine, and antibiotics (100 units/mL penicillin and 100 µg/mL streptomycin). Cytotoxic properties of manganese complexes were measured by EZcount^TM MTT cell assay kit (HiMedia Laboratories Pvt., Ltd., Mumbai, India) in accordance with the manufacturer’s instructions. Cells were seeded into a 96-well plate and incubated with manganese complexes in the concentration range of 15–1000 µM for 24 h at 37 °C in a humidified atmosphere of 5% CO2. After incubation, a solution of MTT (3-[4,5-dimethylthiazol-2-yl]-2, 5-diphenyl tetrazolium bromide) at a concentration (1 mg/mL) was added to each well. After incubation at 37 °C for 4 h, 100 µL of 0.04 M HCl in isopropanol was added to each well and mixed thoroughly to dissolve the dark blue crystals. The measurement of absorbance of the solution related to the number of live cells was conducted on a TECAN Spark Microplate Reader (TECAN, Männedorf, Switzerland) at 570 nm with a reference wavelength 600 nm. All samples were tested in three independent experiments. Results were normalized to the control.
Inhibitory concentrations (IC50) represent the concentrations of the tested samples required to inhibit 50% cell proliferation and were calculated from the mean values of data from wells.

Cc1[nH]cnc1C=O.Cc1[nH]cnc1C=O.O=[N+]([O-])[O-].O=[N+]([O-])[O-].[Mn+2] [Mn-imCHO-NO3]
effect on biofilm structure and cell viability (LIVE/DEAD images) [1]: damage to the bacterial cell walls | % Inhibit. Biofilm (0.25 mM) [2]: 52% | % Inhibit. Biofilm (0.5 mM) [2]: 56% | MIC [3]: > 1 mM and > 399 μg/ml | MIC [4]: > 1 mM and > 399 μg/ml | MIC [5]: > 1 mM and > 399 μg/ml | IC50 [6]: > 1 mM

O=[N+]([O-])[O-].O=[N+]([O-])[O-].OCc1ccccn1.OCc1ccccn1.[Mn+2] [Mn-pyOH-NO3]
effect on biofilm structure and cell viability (LIVE/DEAD images) [1]: damage to the bacterial cell walls | % Inhibit. Biofilm (0.25 mM) [2]: 49% | % Inhibit. Biofilm (0.5 mM) [2]: 54% | MIC [3]: > 1 mM and > 397 μg/ml | MIC [4]: > 1 mM and > 397 μg/ml | MIC [5]: > 1 mM and > 397 μg/ml | IC50 [6]: 1 mM
